Tests used:
JAK3 enzyme [1] = biological target: T1, JAK3 enzyme (Homo sapiens, UniProt P52333); test: JAK Caliper Enzyme Assay at 4 μM ATP; type: biochemical
T1 sequence (P52333 1-1124): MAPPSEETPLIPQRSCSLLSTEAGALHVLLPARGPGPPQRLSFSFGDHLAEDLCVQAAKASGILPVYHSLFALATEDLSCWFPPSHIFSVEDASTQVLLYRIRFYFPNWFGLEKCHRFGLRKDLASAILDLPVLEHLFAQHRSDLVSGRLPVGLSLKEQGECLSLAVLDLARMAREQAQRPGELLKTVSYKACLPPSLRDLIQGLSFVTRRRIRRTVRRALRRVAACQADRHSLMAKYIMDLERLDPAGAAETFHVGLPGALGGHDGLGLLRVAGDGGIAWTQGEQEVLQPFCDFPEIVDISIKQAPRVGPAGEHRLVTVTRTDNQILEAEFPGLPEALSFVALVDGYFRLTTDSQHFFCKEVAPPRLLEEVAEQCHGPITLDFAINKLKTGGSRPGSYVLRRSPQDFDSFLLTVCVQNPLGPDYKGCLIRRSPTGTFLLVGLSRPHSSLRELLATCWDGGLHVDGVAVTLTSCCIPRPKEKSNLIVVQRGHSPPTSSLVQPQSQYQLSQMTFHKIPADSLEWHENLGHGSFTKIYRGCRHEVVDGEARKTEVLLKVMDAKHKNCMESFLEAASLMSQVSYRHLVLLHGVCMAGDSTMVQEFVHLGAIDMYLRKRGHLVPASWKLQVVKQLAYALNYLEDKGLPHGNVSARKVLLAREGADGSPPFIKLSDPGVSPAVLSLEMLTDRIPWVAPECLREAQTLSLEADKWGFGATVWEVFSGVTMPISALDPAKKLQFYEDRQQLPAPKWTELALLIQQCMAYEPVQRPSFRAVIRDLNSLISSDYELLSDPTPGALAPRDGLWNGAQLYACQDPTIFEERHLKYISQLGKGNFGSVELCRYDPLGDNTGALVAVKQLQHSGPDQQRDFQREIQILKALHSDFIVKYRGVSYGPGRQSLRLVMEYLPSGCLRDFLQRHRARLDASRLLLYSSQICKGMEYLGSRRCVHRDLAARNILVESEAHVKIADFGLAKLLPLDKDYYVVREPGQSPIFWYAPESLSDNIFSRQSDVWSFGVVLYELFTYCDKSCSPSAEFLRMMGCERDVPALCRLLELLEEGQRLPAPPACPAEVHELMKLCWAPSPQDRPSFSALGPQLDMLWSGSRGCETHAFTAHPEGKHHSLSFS
How it was run: (§1)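 Kinase activity is measured by separating phosphorylated from unphosphorylated peptide on a microfluidic chip. Per enzyme batch, protein concentration and incubation time are optimized to give 20%-30% substrate turnover.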

JAK3 enzyme [2] = biological target: T1, JAK3 enzyme; test: JAK Caliper Enzyme Assay at 1 mM ATP; type: biochemical
How it was run: as §1

[3] = Stability of JAK3 Covalent Inhibitors in Human Whole Blood; type: in vitro ADME; settings: both sexes, 1 μM test compound, 37° C., 180 min incubation, read-out: Human blood stability t1/2
How it was run: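 Parent remaining versus time was derived from LC-MS/MS peak area ratios to internal standard after acetonitrile quench. Incubations ran for 180 min at 37° C, in duplicate, with 1 μM test compound in pooled K2-EDTA human blood (two healthy donors).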

[4] = test system: IL-15 induced STAT5 phosphorylation in human whole blood lymphocytes; test: HWB IL-15 Induced STAT5 Phosphorylation Assay; type: cell-based; settings: Lymphocyte, IL-15 final 50 ng/ml, read-out: HWB_IL15 pSTAT5 IC50
How it was run: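 Heparinised human whole blood preincubated with compound (0.2% DMSO final) 45 min at 37° C, then stimulated with human IL-15 (50 ng/ml final) for 15 min. After lyse/fix and Perm Buffer III permeabilisation, stained overnight at 4° C with AlexaFluor647 anti-phospho-STAT5; read by flow cytometry gated on total lymphocytes.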

Row | IC50 (JAK3 enzyme [1]) [µM] | IC50 (JAK3 enzyme [2]) [µM] | half-life at 1 μM [3] [h] | IC50 [4] [µM] | Structure (SMILES)
1 | 0.000418 | 0.021 | 4.3 | 1.27 | C=CC(=O)N1CCC(C)(Nc2cnc3[nH]cc(C(=O)NC4CCC4)c3n2)CC1 [Example 324, 2-[(1-acryloyl-4-methylpiperidin-4-yl)amino]-N-cyclobutyl-5H-pyrrolo[2,3-b]pyrazine-7-carboxamide]
2 | 0.000455 | 0.05 | > 6 | 0.78 | C=CC(=O)N1CC[C@H](Nc2cnc3[nH]cc(C(=O)NCC)c3n2)[C@H](OC)C1 [Example 326, 2-{[(3R,4S)-1-acryloyl-3-methoxypiperidin-4-yl]amino}-N-ethyl-5H-pyrrolo[2,3-b]pyrazine-7-carboxamide]
3 | 0.000546 | 0.056 | > 6 | 1.04 | C=CC(=O)N1CCN(c2cnc3[nH]cc(C(=O)N[C@H](C)COC)c3n2)CC1(C)C [Example 327]
4 | 0.000313 | 0.042 | 5.52 | 0.263 | C=CC(=O)N1CC[C@@H](Nc2cnc3[nH]cc(C(=O)N[C@H](C)COC)c3n2)[C@@H](OC)C1 [Example 331, 2-{[(3S,4R)-1-acryloyl-3-methoxypiperidin-4-yl]amino}-N-[(2R)-1-methoxypropan-2-yl]-5H-pyrrolo[2,3-b]pyrazine-7-carboxamide]
5 | 0.000262 | 0.022 | 2.42 | 0.221 | C=CC(=O)N1CCN(c2cnc3[nH]cc(C(=O)N[C@H](C)COC)c3n2)CC1 [Example 332]

Further lines, the compound ahead of its results:

Row | Structure (SMILES) | IC50 (JAK3 enzyme [1]) [µM] | IC50 (JAK3 enzyme [2]) [µM] | half-life at 1 μM [3] [h] | IC50 [4] [µM]
6 | C=CC(=O)N1CC[C@H](Nc2cnc3[nH]cc(C(=O)NCC(F)(F)F)c3n2)[C@H](OC)C1 [Example 293, 2-{[(3R,4S)-1-acryloyl-3-methoxypiperidin-4-yl]amino}-N-(2,2,2-trifluoroethyl)-5H-pyrrolo[2,3-b]pyrazine-7-carboxamide] | 0.00068 | 0.051 | 3.4 | 0.818
7 | C=CC(=O)N1CCN(c2cnc3[nH]cc(C(=O)N[C@@H](C)COC)c3n2)CC1 [Example 295, 2-(4-acryloylpiperazin-1-yl)-N-[(2S)-1-methoxypropan-2-yl]-5H-pyrrolo[2,3-b]pyrazine-7-carboxamide] | 0.000179 | 0.029 | 2.22 | 0.199
8 | C=CC(=O)N1CCN(c2cnc3[nH]cc(C(=O)N[C@@H](C)COC)c3n2)CC1(C)C [Example 298, 2-(4-acryloyl-3,3-dimethylpiperazin-1-yl)-N-[(2S)-1-methoxypropan-2-yl]-5H-pyrrolo[2,3-b]pyrazine-7-carboxamide] | 0.000485 | 0.069 | > 6 | 1.28
9 | C=CC(=O)N1CCN(c2cnc3[nH]cc(C(=O)N[C@H](CC)CC#N)c3n2)C[C@@H]1CC(C)C [Example 314, 2-[(3S)-4-acryloyl-3-(2-methylpropyl)piperazin-1-yl]-N-[(2R)-1-cyanobutan-2-yl]-5H-pyrrolo[2,3-b]pyrazine-7-carboxamide] | 0.00024 | 0.03 | 3.12 | 0.402
10 | C=CC(=O)N1CC[C@H](Nc2cnc3[nH]cc(C(=O)NCCCC(F)(F)F)c3n2)[C@H](OC)C1 [Example 319, 2-{[(3R,4S)-1-acryloyl-3-methoxypiperidin-4-yl]amino}-N-(4,4,4-trifluorobutyl)-5H-pyrrolo[2,3-b]pyrazine-7-carboxamide] | 0.000404 | 0.045 | 5.57 | 0.396
11 | C=CC(=O)N1CC[C@@H](Nc2cnc3[nH]cc(C(=O)NCC(C)(F)F)c3n2)[C@@H](OC)C1 [Example 321, 2-{[(3S,4R)-1-acryloyl-3-methoxypiperidin-4-yl]amino}-N-(2,2-difluoropropyl)-5H-pyrrolo[2,3-b]pyrazine-7-carboxamide] | 0.000448 | 0.046 | > 6 | 0.999

Reference: US10703756B2, “Pyrrolo[2,3-D]pyrimidinyl, pyrrolo[2,3-B]pyrazinyl, pyrrolo[2,3-B]pyridinyl acrylamides and epoxides thereof” (Pfizer Inc., priority 2015, dated 2020)
